Data published in PMC8583417, “Evaluation of the Antimicrobial Efficacy of N-Acetyl-L-Cysteine, Rhamnolipids, and Usnic Acid—Novel Approaches to Fight Food-Borne Pathogens” (International Journal of Molecular Sciences, 2021).

Assays:
L. monocytogenes 149 = experiment: CLSM analysis, biofilm prevention; assay type: cell-based, Listeria monocytogenes; details: for proportion of membrane-compromised cells: 24 h; for Thickness (µm) MICBM80 / Thickness (µm) subCBM80: 24 h exposure; for Thickness (µm) MICBM80: substance at its MICBM80, mean ± SD; for Thickness (µm) subCBM80: substance at subinhibitory concentration, mean ± SD
Method: Biofilm prevention and removal analyses were performed using previously determined minimum inhibitory and subinhibitory concentrations for metabolic activity (MICBM80, subCBM80; MICMPB80, subCMPB80) of NAC, RLs, and UA specific for each tested strain. Selected concentrations were used to evaluate the inhibition of biofilm formation (biofilm prevention) and the reduction in previously formed biofilms (biofilm removal) for the same set of microorganisms, with the exception of S. Infantis, which was excluded from the analysis due to its inability to form biofilm in the selected microtiter plate. Biofilm prevention and removal were observed using CLSM with specific staining to distinguish between live and membrane-compromised cells. Images were analyzed to evaluate (i). the total volume of the biomass, (ii). ratios of live and membrane-compromised cells, and (iii). to calculate biofilm volume reduction for individual organisms after the respective treatment types. The total biofilm volume was normalized by the area of the well and expressed as an average biofilm thickness. Complete data are provided in Supplementary Materials (Tables S1–S8).
For both inhibition and reduction of biofilms, overnight cultures from BHI were diluted in TSB + 1% Glc to reach an absorbance of 0.08 to 0.1 at 625 nm. The inoculum (150 µL) was transferred into wells of the 96-well flat-bottomed Ibidiμ-Plate (Ibidi, Gräfelfing, Germany) and mixed with 150 µL of each of the three tested substances in technical quadruplicates, followed by incubation at 37 °C for 24 h. Simultaneously, the prepared bacterial suspensions were inoculated to an additional microtiter plate (200 µL) and allowed to form biofilm overnight (18 h at 37 °C). After the incubation, the content of the well was drained off, and 200 µL of each of the three tested substances was added to the plate, which was then incubated for an additional 20 h. The used concentrations of the substances represented the subinhibitory and minimum inhibitory concentrations for metabolic activity (subCBM80, MICBM80; subCMPB80, MICMPB80). Both setups contained a positive control of the bacterial growth (inoculum mixed with sterile TSB + 1% Glc medium) and a control monitoring microbial contamination (sterile medium). Non-treated wells were used as a positive control for comparison between non-treated and treated biofilm mass.
Prior to the imaging, the wells were stained with the LIVE/DEAD® BacLight™ Bacterial Viability Kit (Thermo Fisher Scientific, MA, USA) following the manufacturer’s guidelines and Drago et al.. Briefly, equal volumes of SYTO® 9 and propidium iodide were combined with the sterile distilled water to reach a final concentration of […]. The biofilm mass was stained using 300 µL of the staining solution per well followed by incubation at 37 °C in the dark for 15 min. Stained wells were washed once with sterile distilled water, which was then added to each well (300 µL). Images were acquired with an inverted Leica SP5 CLSM using a 1.25× dry objective (WD 3.7 mm, Z-resolution 27 µm, up to 24 Z-stacks per well) to visualize an entire well. Samples were kept at the cultivation conditions (37 °C, 5% CO2, 90% humidity) with an OkoLabs stage top environmental chamber (Oko Labs, PA, USA). Fluorophore excitation lasers and emission bandwidths were as follows: SYTO® 9 (ex/em 485/498 nm) 488 nm excitation, 495 to 550 nm emission collection; propidium iodide (ex/em 535/617 nm) 561 nm excitation, 595 to 650 nm emission collection. The laser beam scanned the visual field at a frequency of 600 Hz. The wells were captured in snapshots of 1024 × 1024 pixels representing the area of 153.76 mm^2.
All collected images were statistically evaluated to quantify biovolume utilizing the surface estimation procedure described in Parker et al.. […]

S. aureus 1241 = experiment: MIC for further growth of biofilm cells, preformed biofilm (A625nm); assay type: cell-based, Staphylococcus aureus; details: ≥80% inhibition, 18 h preformed biofilm, 20 h with substance
Method: Ten concentrations of NAC, RLs, and UA were tested to determine the minimum inhibitory concentration for planktonic growth, and subsequently, the six highest concentrations were applied on preformed biofilms to evaluate the biofilm eradication ability of the compounds. MIC was defined as the lowest substance concentration able to inhibit at least 80% of microbial growth (MICPC80 for planktonic cells, MICBC80 for further growth of biofilm cells), inhibit 80% of metabolic activity (MICBM80 for biofilm metabolic activity, MICMPB80 for metabolic activity of preformed biofilm), prevent biofilm formation by at least 80% (MICBF80 for biofilm formation), or reduce a preformed biofilm by at least 80% (MICBR80 for biofilm reduction). The results of MICs are summarized in Table 1 (planktonic cells) and Table 2 (biofilm-associated cells).
The determination of MICs was performed according to Chlumsky et al.. […] To evaluate planktonic cells growth (MICPC80) and further growth of biofilm cells (MICBC80), the optical density of the content of the microtiter plates was measured spectrophotometrically at 625 nm before and after 24 h (for biofilm formation) of cultivation or before and after additional 20 h incubation with the tested compound (for preformed biofilm). […] To evaluate the inhibition of biofilm formation (MICBF80) and reduction in preformed biofilms (MICBR80), biomass was quantified using crystal violet staining, and its metabolic activity (MICBM80 and MICMPB80) was estimated by using the MTT (thiazyl tetrazolium bromide, Sigma-Aldrich, USA) reduction assay, both measured spectrophotometrically at 595 nm.
All inhibitions were calculated using the formula of Chlumsky et al. below (Equation (1)):(1) A625(595)nm inhibition (%)=A625(595)nm (control) – A625(595)nm(natural substance)/A625(595)nm (control)× 100 where A625(595)nm (control) is the absorbance of bacterial suspension/biofilm itself, and A625(595)nm(natural substance) is the absorbance of the bacterial suspension/biofilm with the added natural substance (NAC, RLs, and UA). […]

Compound | proportion of membrane-compromised cells (L. monocytogenes 149; MIC) | Thickness (µm) MICBM80 (L. monocytogenes 149) [µm] | Thickness (µm) subCBM80 (L. monocytogenes 149) [µm] | MICBC80 (S. aureus 1241) [µg/mL] | proportion of membrane-compromised cells (L. monocytogenes 149; MIC and subinhibitory concentration)
CC(=O)c1c(O)c(C)c(O)c2c1OC1=CC(=O)C(C(C)=O)C(=O)C12C (single isomer, unassigned; (+)) [UA, (+)-usnic acid] | up to 15% | 175 ± 79.4 | 268 ± 68.9 | 3.91 | –
CC(=O)N[C@@H](CS)C(=O)O [NAC, N-Acetyl-L-cysteine] | – | 86.5 ± 2.6 | 238 ± 32 | 6250 | up to 25%
